From article PMC4871627 (Journal of medicinal chemistry, 2016)

Assays:
[1] = biological target: HIV integrase (Human immunodeficiency virus type 1 group M subtype B, UniProt P04585); test: HIV IN strand transfer; format: biochemical, HIV-1; conditions: INST IC50, tested 0.13-100 µM
[2] = biological target: HIV RT polymerase (Human immunodeficiency virus type 1 group M subtype B, UniProt P04585); format: biochemical, HIV-1; conditions: RNase H with HTS-1 as substrate

COc1ccc(-c2cccc(Nc3cc(=O)n(O)c(=O)[nH]3)c2)c(OC)c1 [11l, 6-((2',4'-Dimethoxy-[1,1'-biphenyl]-3-yl)amino)-3-hydroxypyrimidine-2,4(1H,3H)-dione]
IC50 [1]: 1.2 to 1.3 µM

COc1ccc(-c2cccc(Nc3cc(=O)n(O)c(=O)[nH]3)c2)cc1 [11j, 3-Hydroxy-6-((4'-methoxy-[1,1'-biphenyl]-3-yl)amino)pyrimidine-2,4(1H,3H)-dione]
IC50 [1]: > 100 µM | SI (IC50 RT pol / IC50 RNase H) [2]: 6.3 (32)

Cc1ccc(-c2ccc(Nc3cc(=O)n(O)c(=O)[nH]3)cc2)cc1 [11b, 3-Hydroxy-6-((4'-methyl-[1,1'-biphenyl]-4-yl)amino)pyrimidine-2,4(1H,3H)-dione]
SI (IC50 RT pol / IC50 RNase H) [2]: 5.7 (14)

O=c1cc(Nc2cccc(-c3ccc(F)cc3)c2)[nH]c(=O)n1O [11o, 6-((4'-Fluoro-[1,1'-biphenyl]-3-yl)amino)-3-hydroxypyrimidine-2,4(1H,3H)-dione]
IC50 [1]: > 100 µM | SI (IC50 RT pol / IC50 RNase H) [2]: 6.6 (33)

COc1cccc(OC)c1-c1cccc(Nc2cc(=O)n(O)c(=O)[nH]2)c1 [11m, 6-((2',6'-Dimethoxy-[1,1'-biphenyl]-3-yl)amino)-3-hydroxypyrimidine-2,4(1H,3H)-dione]
IC50 [1]: 1.2 to 1.3 µM
